From US20230060873A1, “COMPOUNDS AND METHODS FOR FORMING ION CHANNELS IN BIOLOGICAL MEMBRANES” (Washington University, priority 2021, published 2023) come the findings set out here.

Data set [1] has as its system Bacillus subtilis. The data set is described as follows: Toxicity (MIC) of MAcBCE and MAkBCE compounds on B. subtilis. Particulars: B. subtilis 168 WT with pRB374, 12 h, up to 400 μM. Format: cell-based. The protocol:
XL1 blue strain Escherichia coli cells transformed with pET28a plasmid containing a kanamycin resistance gene, were grown at 37° C. in 2 mL of LB medium (Miller's LB broth, Research Products International) supplemented with 50 μg/mL of kanamycin, until the optical density (OD600) reached 0.6. The starting density of bacteria in the remainder of the experiments was a 1/100 dilution of this bacterial density, which was split into 4 mL cultures. A series of 400, 100, 10 and 5 mM stock solutions of each monoacylated benzo(crown-ether) (MAcBCE) and monoalkylated benzo(crown-ether) (MAkBCE) compounds in trifluoroethanol (TFE) were diluted by addition to the 4 mL cultures to reach final concentrations of 400, 200, 100, 50, 20, 15, 10, 5, 4, 3, 2 and 1 μM. The final TFE concentration was never higher than 0.1% v/v. Negative controls in the presence of TFE 0.1% v/v or in the absence of any treatment for each batch gave similar bacterial growth. The cultures were incubated at 37° C. with agitation for 12 h. Bacillus subtilis (168 WT) toxicity tests were carried out using an identical protocol, except they were transformed with the shuttle plasmid pRB374 in the presence of 5 μg/mL of kanamycin. […] Each compound was assayed a minimum of three times at each tested concentration.
The cytotoxicity of MABCE compounds was determined by measuring the MIC in liquid cultures of either the gram-negative bacteria Escherichia coli or the gram-positive bacteria Bacillus subtilis. […] As some curves overlap, portions of them are hidden. Values of MIC of 400 μM indicate that the value was either 400 μM, or it was higher and then was not determined. Each compound was assayed a minimum of three times at each different concentration. MICs for 5-A-4, 5-A-11, 6-A-11 and 6-O-11 could not be determined because the compounds were not soluble in TFE. While E. coli was not susceptible to any of the tested compounds at concentrations as high as 400 μM (data not shown), B. subtilis was susceptible to MABCE compounds bearing 15-crown-5 and 18-crown-6 scaffolds, but not to compounds containing a 12-crown-4 scaffold, as shown in FIG. 1.

Data set [2] deals with B. subtilis membranes. The data set is described as follows: DiSC3(5) depolarization assay, MAcBCE/MAkBCE. Format: cell-based, Bacillus subtilis. Particulars: 2 μM compound, 60 mM KCl, NaCl or NMDG-Cl; for change in DiSC3(5) fluorescence (membrane depolarization): 25° C, 10 minutes. As to the method:
A 2 mL liquid culture of transformed B. subtilis cells was grown at 37° C. in LB medium supplemented with 5 μg/mL kanamycin until OD600=0.6 was reached. The cells were collected by centrifugation at 2000 rpm over 3 min. The bacteria were washed twice with an NMDG-MeSO3 solution (100 mM NMDG, 10 mM HEPES, pH adjusted to 7.4 with methane sulfonic acid). […] The working dye solution was a 200 μM solution of DiSC3(5) (3,3′-dipropylthiadicarbocyanine iodide; Tokyo Chemical Industry) in DMSO. A series of 2 M solutions of NMDG-Cl, NaCl and KCl were prepared containing 10 mM HEPES; the pH was adjusted to pH 7.4 with NMDG, NaOH or KOH, respectively, to avoid any pH changes after their addition. The experiment was initiated with 3 mL of NMDG-MeSO3 in a quartz cuvette, then 5 μL of the dye solution was added (timepoint t1, 50 sec) for a 0.3 μM final concentration by the end of experiment. This was followed by the addition of 100 μL of the B. subtilis suspension (timepoint t2, 100 sec). After 150 sec (timepoint t3, 250 sec), the fluorescence stabilized to a minimum intensity and 100 μL of the 2 M NMDG-Cl, NaCl or KCl solution was added to reach ˜60 mM final concentration of the salt. The final step was the addition 0.64 μL of a 10 mM stock solution of the desired MAcBCE or MAkBCE compound in TFE (timepoint t4, 400 sec), for a final concentration of 2 μM. Negative controls were performed by adding the same volume of pure TFE to the cuvette at timepoint t4. Fluorescence intensity was recorded each second using a Horiba Fluoromax 4 spectrometer (λexcitation=640 nm; λemission=670 nm). The solution inside the cuvette was vigorously mixed throughout the experiment by using a magnetic stirrer and the temperature was kept constant at 25° C. For purposes of normalization, the fluorescence intensity was divided by the fluorescence level just before timepoint t2.
To determine whether MAcBCE or MAkBCE compounds catalyse ion-selective flux, a set of highly bioactive members bearing ten-carbon chain lengths were tested for their ability to depolarize B. subtilis membranes using a test based on the fluorescent dye 3,3-dipropylthiadicarbocyanine (DiSC3(5)). This set of compounds were selected as four of the most toxic members of the MAcBCE and MAkBCE compound library (5-O-10, 5-A-10, 6-O-10, and 6-A-10; FIG. 3) belong to this group and all are soluble in TFE. The two non-toxic benzo(12-crown-4) scaffold members (4-O-10 and 4-A-10; FIG. 3) were used as controls.
FIGS. 4 and 5 show the time course of DiSC3(5) fluorescence due to the addition of 2 μM 6-A-10 (FIG. 4) and 6-O-10 (FIG. 5). The average of the final fluorescence values (mean±S.E.M.) of at least three experiments are shown in FIGS. 4 and 5 and are similarly plotted for 4-A-10 (FIG. 6), 5-A-10 (FIG. 7), 6-A-10 (FIG. 8), 4-O-10 (FIG. 9), 5-O-10 (FIG. 10), and 6-O-10 (FIG. 11). Experiments were performed in a NMDG-MeSO3 solution (100 mM NMDG, 10 mM HEPES, pH adjusted to 7.4 with methane sulfonic acid). The events are: t1, addition of dye; t2, addition of B. subtilis; t3, addition of a 2 M NMDG-Cl, 2 M NaCl or a 2 M KCl solution up to a final concentration of 60 mM; t4, addition of each MAcBCE or MAkBCE compound up to 2 μM. Experiments were repeated at least four times per condition and normalized relative to the fluorescence intensity just before the addition of cells.
The potentiometric dye DiSC3(5) was used to measure the ability of MAcBCE and MAkBCE compounds to catalyse ion-selective transport. DiSC3(5) undergoes membrane voltage-dependent partitioning between the intracellular and the extracellular medium. DiSC3(5) accumulates within a cell with a polarized membrane (negatively charged inside the cell) and is released when the cell membrane is depolarized (positively charged inside the cell). The membrane voltage in B. subtilis is roughly −120 mV, leading to DiSC3(5) accumulation in the bacteria (timepoint t2 in FIG. 4A-B). […]

Data set [3] can be described thus: Solubility in trifluoroethanol (TFE). Format: physicochemical. Particulars: trifluoroethanol stock solutions.
In data set [4] the test system is Bacillus subtilis. Kind of data set: Toxicity (MIC) of dialkylated lariat ethers on B. subtilis. Format: cell-based. Particulars: B. subtilis 168 WT, 12 h, visual turbidity, read-out: minimum inhibitory concentration (MIC). As to the method:
The cyto-toxicity was determined by measuring the minimum inhibitory concentrations (MIC) for this series of dialkylated lariat ethers in the Gram-negative bacteria Escherichia coli, the Gram-positive bacteria Bacillus subtilis, and human embryonic kidney (HEK293T) cells.
On bacteria. XL1 blue strain Escherichia coli cells transformed with a pET28a plasmid (which contains a kanamycin resistance gene) were grown at 37° C. in 2 mL of LB medium (Miller's LB broth, Research Products International) supplemented with 50 μg/mL of kanamycin until the optical density (600 nm) reached 0.600. The starting density of bacteria in the remainder of the experiments was a 1/100 dilution of this bacterial density, which was split into 4 mL cultures. A series of 400, 100, 10 and 5 mM stock solutions of each dialkylated diaza(18-crown-6) compounds in trifluoroethanol (TFE) were diluted by adding to the 4 mL cultures until final concentrations of 400, 200, 100, 50, 20, 15, 10, 5, 4, 3, 2 and 1 μM were reached, with the final TFE concentration never >0.1% v/v. Negative controls in the presence of TFE 0.1% v/v or the absence of any treatment were done for each batch. The cultures were incubated at 37° C. with agitation for 12 h. Bacillus subtilis (168 WT) toxicity tests were carried out using an identical protocol, except for the addition of the antibiotic. […] Each compound was assayed a minimum of three times at each tested concentration.

The nature of data set [5]: Planar lipid bilayer ion channel recordings. Format: biochemical. The note with it: 2 μM; bilayer clamped at 100 mV; 150 mM KCl, 10 mM HEPES, pH 7.4. As to the method: Experiments in planar lipid bilayers were performed via a Nanion Orbit-mini planar bilayer system. The planar membranes were formed by painting a 25 mg/mL solution of lipids in n-nonane over the four 50 μm apertures on the chip. The lipids used were asolectin from soybean (Sigma-Aldrich) or a 3:1 w/w mix of 1-palmitoyl-2-oleoyl-sn-glycero-3-phosphoethanolamine (POPE) and 1-palmitoyl-2-oleoyl-sn-glycero-3-phospho-(1′-rac-glycerol) (POPG) (Avanti Polar lipids). The solutions tested were KCl solution (150 mM KCl, 10 mM HEPES, pH adjusted to 7.4 with KOH), NaCl solution (150 mM NaCl, 10 mM HEPES, pH adjusted to 7.4 with NaOH), and a concentrated KCl solution (500 mM KCl, 10 mM HEPES, pH adjusted to 7.4 with KOH). When the appropriate membrane formed, the voltage was clamped at 100 mV or −100 mV, and a stock solution of gramicidin D (Sigma-Aldrich) in DMSO or LEC10 in TFE were added up to the desired concentration. The tested concentration of gramicidin D was 1 nM and 2, 10, 100 and 200 μM were tested for LEC10. Two different temperatures were tested for each condition: 25 and 37° C. The current was recorded over 10 min for the gramicidin test and up to 1 h for the LEC10 test. The data was analyzed with Clampfit 10.7 software (Axon Instruments).
FIGS. 41 and 42 show the lipid bilayer recordings. Current through the asolectin planar lipid bilayer clamped at 100 mV was recorded in the presence of […] (FIG. 41) and 2 μM LEC10 (FIG. 42). In both cases, the solution was 150 mM KCl, 10 mM HEPES, pH 7.4. […] This lack of unitary channel formation, or even a carrier-like increase of the conductance, precludes an ionophore-like mechanism of ion transport.

Values after ≈ are worked out from the molar mass of the structure shown.

Consider `CCCCCCCCCCc1ccc2c(c1)OCCOCCOCCO2` [Compound 4-A-10, 12-decyl-2,3,5,6,8,9-hexahydrobenzo[b][1,4,7,10]tetraoxacyclododecine], for which the “toxicity / susceptibility of B. subtilis (MIC, FIG. 1)” value (“toxicity / susceptibility” below) in data set [1] is recorded as “non-toxic”. Further, the “change in DiSC3(5) fluorescence (membrane depolarization)” value in data set [2] was “negligible”.
For the compound `CCCCCCCCCC(=O)c1ccc2c(c1)OCCOCCOCCO2` [Compound 4-O-10, 1-(2,3,5,6,8,9-hexahydrobenzo[b][1,4,7,10]tetraoxacyclododecin-12-yl)decan-1-one], the “toxicity / susceptibility” value in data set [1] is given as “non-toxic”. Moreover, the “change in DiSC3(5) fluorescence (membrane depolarization)” value in data set [2] is “negligible”.
With `CCCCc1ccc2c(c1)OCCOCCOCCOCCO2` [Compound 5-A-4, 15-butyl-2,3,5,6,8,9,11,12-octahydrobenzo[b][1,4,7,10,13]pentaoxacyclopentadecine], the “solubility in TFE” value in data set [3] is reported as “not soluble”.
For `CCCCCCCCCCc1ccc2c(c1)OCCOCCOCCOCCO2` [Compound 5-A-10, 15-decyl-2,3,5,6,8,9,11,12-octahydrobenzo[b][1,4,7,10,13]pentaoxacyclopentadecine], the “toxicity / susceptibility” value in data set [1] is listed as “most toxic”. In addition, the “kinetics of the depolarization, ion dependence” value in data set [2] is “fastest in presence of K^+ followed by Na^+ and then NMDG^+”.
`CCCCCCCCCCCc1ccc2c(c1)OCCOCCOCCOCCO2` [Compound 5-A-11, 15-undecyl-2,3,5,6,8,9,11,12-octahydrobenzo[b][1,4,7,10,13]pentaoxacyclopentadecine]: in data set [3], the “solubility in TFE” value is reported as “not soluble”.
Consider `CCCCCCCCCC(=O)c1ccc2c(c1)OCCOCCOCCOCCO2` [Compound 5-O-10, 1-(2,3,5,6,8,9,11,12-octahydrobenzo[b][1,4,7,10,13]pentaoxacyclopentadecin-15-yl)decan-1-one], for which, in data set [1], the “toxicity / susceptibility” value is “most toxic”. Further, in data set [2], the “kinetics of the depolarization, ion dependence” value was “fastest in presence of K^+ followed by Na^+ and then NMDG^+”.
`CCCCCCCCCCCc1ccc2c(c1)OCCOCCOCCOCCOCCO2` [Compound 6-A-11, 18-undecyl-2,3,5,6,8,9,11,12,14,15-decahydrobenzo[b][1,4,7,10,13,16]hexaoxacyclooctade-cine]: the “solubility in TFE” value in data set [3] is “not soluble”.
Turning to `CCCCCCCCCCC(=O)c1ccc2c(c1)OCCOCCOCCOCCOCCO2` [Compound 6-O-11, 1-(2,3,5,6,8,9,11,12,14,15-decahydrobenzo[b][1,4,7,10,13,16]hexaoxacyclooctadecin-18-yl)undecan-1-one], the “solubility in TFE” value in data set [3] is on record as “not soluble”.
Take `CCCCCCCCCCCN1CCOCCOCCN(CCCCCCCCCCC)CCOCCOCC1` [LEC11, Diundecyl diaza(18-crown-6)]: the MIC in data set [4] turned out to be 2 µM (≈ 1.14 µg/mL).
Same read-out and setting: for `CCCCCCCCCCCCN1CCOCCOCCN(CCCCCCCCCCCC)CCOCCOCC1` [LEC12, Didodecyl diaza(18-crown-6)] the value was 2 µM (≈ 1.2 µg/mL); for `CCCCCCCCCCCCCN1CCOCCOCCN(CCCCCCCCCCCCC)CCOCCOCC1` [LEC13, Ditridecyl diaza(18-crown-6)], more than 400 µM.
For gramicidin D, the ion channel activity entry in data set [5] was “unitary channels”.
